In patent US20100261711A1, “SELECTIVE ANTICONVULSANT AGENTS AND THEIR USES” (WiSys Technology Foundation, priority 2009, published 2010):

melting point	Compound
174 to 175 °C	CCOC(=O)c1ncn2c1CN=C(c1ccccc1)c1cc(Cl)ccc1-2
234 to 235 °C	CNC1=Nc2ccc(Br)cc2C(c2ccccc2)=NC1
210 to 211 °C	CNC1=Nc2ccc(C#C[Si](C)(C)C)cc2C(c2ccccc2)=NC1
242 to 243 °C	C[Si](C)(C)C#Cc1ccc2c(c1)C(c1ccccn1)=NCC(=O)N2
194 to 195 °C	CN1C(=O)CN=C(c2ccccn2)c2cc(C#C[Si](C)(C)C)ccc21
190 to 191 °C	C#Cc1ccc2c(c1)C(c1ccccn1)=NCC(=O)N2C
205 to 206 °C	CCOC(=O)c1ncn2c1CN=C(c1ccccn1)c1cc(C#C[Si](C)(C)C)ccc1-2
222 to 223 °C	CC(C)(C)OC(=O)c1ncn2c1CN=C(c1ccccc1)c1cc(Br)ccc1-2
